Test results as given in patent publication US20250344734A1, “UNSATURATED FATTY ACIDS AND THEIR USE TO MODIFY TASTE” (Firmenich Incorporated, priority 2022, published 2025).

Experiments:
Type in all cases: cell-based
Conditions in all cases: unsaturated fatty acid concentration of 200 µM, cells stimulated with known bitter agonist
T2R67 (TAS2R50) = target: T1, T2R67 (TAS2R50) (Homo sapiens, UniProt P59544); experiment: FLIPR calcium assay, block of bitter agonist response, T2R67
T1 construct: expressed in transfected cells; host or cells: cells expressing a promiscuous G protein (e.g., G16g44)
T1 sequence (P59544 1-299): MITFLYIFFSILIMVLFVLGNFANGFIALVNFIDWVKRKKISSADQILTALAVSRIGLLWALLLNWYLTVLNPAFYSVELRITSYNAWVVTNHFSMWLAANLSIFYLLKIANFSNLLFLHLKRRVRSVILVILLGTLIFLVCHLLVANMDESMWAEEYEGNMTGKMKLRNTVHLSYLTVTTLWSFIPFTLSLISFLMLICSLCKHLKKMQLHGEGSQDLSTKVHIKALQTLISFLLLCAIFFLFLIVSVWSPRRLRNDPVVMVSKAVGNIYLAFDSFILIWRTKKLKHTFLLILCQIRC
Experimental: (§1) Cells expressing a promiscuous […] (e.g., G16g44) were transfected with vectors encoding 18 functional bitter receptor cDNAs, with one receptor per transfection. The cells were transfected directly in 384-well format high-density plates and incubated for 28 hours. Later, cells were loaded with the Ca-specific dye Fluo4-AM. After an incubation of 60 minutes, excess dye is washed off, and cells are stimulated with a known bitter agonist for each receptor and various unsaturated fatty acids. Changes in intracellular fluorescence are recorded using a FLIPR instrument. Bitter antagonists and corresponding receptors are identified based on percentage inhibition of agonist's activity on a given receptor.
(§2) The above protocol was carried out using 16 different unsaturated fatty acids. A particular T2R receptor was identified as being antagonized by a particular unsaturated fatty acid if it triggered a >25% block of agonist's cellular response at 200 μM concentration of unsaturated fatty acid. […] Table 2 indicates the sixteen (16) compounds tested by their compound number from Table 1 above. The 18 bitter taste receptors screened are the human bitter taste receptors we named. […]

T2R63 (TA2R20) = target: T2, T2R63 (TA2R20) (Homo sapiens, UniProt P59543); experiment: FLIPR calcium assay, block of bitter agonist response, T2R63
T2 construct: expressed in transfected cells; host or cells: cells expressing a promiscuous G protein (e.g., G16g44)
T2 sequence (P59543 1-309): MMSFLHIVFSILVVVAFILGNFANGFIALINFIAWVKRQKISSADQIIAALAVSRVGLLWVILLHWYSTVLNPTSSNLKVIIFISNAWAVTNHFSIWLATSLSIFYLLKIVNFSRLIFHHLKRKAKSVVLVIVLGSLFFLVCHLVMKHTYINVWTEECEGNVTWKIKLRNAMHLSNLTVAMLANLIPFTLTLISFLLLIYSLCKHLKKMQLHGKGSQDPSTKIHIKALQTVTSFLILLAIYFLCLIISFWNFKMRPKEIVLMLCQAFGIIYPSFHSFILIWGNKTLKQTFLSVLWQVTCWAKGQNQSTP
Experimental: as §1, §2

T2R04 (TAS2R04) = target: T3, T2R04 (TAS2R04) (Homo sapiens, UniProt Q9NYW5); experiment: FLIPR calcium assay, block of bitter agonist response, T2R04
T3 construct: expressed in transfected cells; host or cells: cells expressing a promiscuous G protein (e.g., G16g44)
T3 sequence (Q9NYW5 1-299): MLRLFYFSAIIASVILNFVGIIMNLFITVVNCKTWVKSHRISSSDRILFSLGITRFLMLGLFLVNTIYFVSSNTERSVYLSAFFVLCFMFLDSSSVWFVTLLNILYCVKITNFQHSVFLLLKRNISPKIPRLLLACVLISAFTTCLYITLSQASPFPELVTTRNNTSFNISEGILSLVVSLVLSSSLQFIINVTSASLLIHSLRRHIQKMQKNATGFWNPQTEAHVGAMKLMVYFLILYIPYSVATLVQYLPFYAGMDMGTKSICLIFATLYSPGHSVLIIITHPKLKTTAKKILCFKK
Experimental: as §1, §2

T2R13 (TAS2R13) = target: T4, T2R13 (TAS2R13) (Homo sapiens, UniProt Q9NYV9); experiment: FLIPR calcium assay, block of bitter agonist response, T2R13
T4 construct: expressed in transfected cells; host or cells: cells expressing a promiscuous G protein (e.g., G16g44)
T4 sequence (Q9NYV9 1-303): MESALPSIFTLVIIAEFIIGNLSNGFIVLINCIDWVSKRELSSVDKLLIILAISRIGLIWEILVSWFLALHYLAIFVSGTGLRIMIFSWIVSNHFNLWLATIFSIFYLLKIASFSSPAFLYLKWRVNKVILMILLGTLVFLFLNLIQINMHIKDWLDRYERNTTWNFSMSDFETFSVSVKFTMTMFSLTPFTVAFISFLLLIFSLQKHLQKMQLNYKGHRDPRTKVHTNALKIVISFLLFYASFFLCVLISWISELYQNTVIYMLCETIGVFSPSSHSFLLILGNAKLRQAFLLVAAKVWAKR
Experimental: as §1, §2

T2R03 (TAS2R03) = target: T5, T2R03 (TAS2R03) (Homo sapiens, UniProt Q9NYW6); experiment: FLIPR calcium assay, block of bitter agonist response, T2R03
T5 construct: expressed in transfected cells; host or cells: cells expressing a promiscuous G protein (e.g., G16g44)
T5 sequence (Q9NYW6 1-316): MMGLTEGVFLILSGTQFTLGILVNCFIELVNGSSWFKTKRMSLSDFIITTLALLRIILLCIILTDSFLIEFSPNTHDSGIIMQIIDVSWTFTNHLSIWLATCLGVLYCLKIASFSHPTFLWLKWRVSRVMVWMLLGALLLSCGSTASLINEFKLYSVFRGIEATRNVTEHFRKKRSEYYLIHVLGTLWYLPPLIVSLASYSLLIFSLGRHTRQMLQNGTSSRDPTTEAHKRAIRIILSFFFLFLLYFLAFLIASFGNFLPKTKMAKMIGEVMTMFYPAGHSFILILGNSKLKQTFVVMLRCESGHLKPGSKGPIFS
Experimental: as §1, §2

T2R71 (TAS2R41) = target: T6, T2R71 (TAS2R41) (Homo sapiens, UniProt P59536); experiment: FLIPR calcium assay, block of bitter agonist response, T2R71
T6 construct: expressed in transfected cells; host or cells: cells expressing a promiscuous G protein (e.g., G16g44)
T6 sequence (P59536 1-307): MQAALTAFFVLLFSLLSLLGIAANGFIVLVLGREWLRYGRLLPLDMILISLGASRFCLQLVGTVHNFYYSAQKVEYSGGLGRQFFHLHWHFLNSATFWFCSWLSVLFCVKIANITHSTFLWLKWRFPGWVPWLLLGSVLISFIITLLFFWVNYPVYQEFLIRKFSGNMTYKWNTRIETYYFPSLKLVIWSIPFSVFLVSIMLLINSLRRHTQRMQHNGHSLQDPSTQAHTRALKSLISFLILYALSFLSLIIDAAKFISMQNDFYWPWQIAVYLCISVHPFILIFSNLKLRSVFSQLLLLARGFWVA
Experimental: as §1, §2

T2R61 (TAS2R43) = target: T7, T2R61 (TAS2R43) (Homo sapiens, UniProt P59537); experiment: FLIPR calcium assay, block of bitter agonist response, T2R61
T7 construct: expressed in transfected cells; host or cells: cells expressing a promiscuous G protein (e.g., G16g44)
T7 sequence (P59537 1-309): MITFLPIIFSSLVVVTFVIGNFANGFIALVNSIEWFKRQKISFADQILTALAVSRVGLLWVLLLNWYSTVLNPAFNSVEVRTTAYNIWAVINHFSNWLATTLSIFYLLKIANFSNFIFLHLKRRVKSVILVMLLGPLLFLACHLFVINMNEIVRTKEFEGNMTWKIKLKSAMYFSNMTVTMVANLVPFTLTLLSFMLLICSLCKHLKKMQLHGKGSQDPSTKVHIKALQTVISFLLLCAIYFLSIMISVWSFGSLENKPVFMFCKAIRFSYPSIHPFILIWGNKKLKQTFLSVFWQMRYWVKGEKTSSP
Experimental: as §1, §2

T2R16 (TAS2R16) = target: T8, T2R16 (TAS2R16) (Homo sapiens, UniProt Q9NYV7); experiment: FLIPR calcium assay, block of bitter agonist response, T2R16
T8 construct: expressed in transfected cells; host or cells: cells expressing a promiscuous G protein (e.g., G16g44)
T8 sequence (Q9NYV7 1-291): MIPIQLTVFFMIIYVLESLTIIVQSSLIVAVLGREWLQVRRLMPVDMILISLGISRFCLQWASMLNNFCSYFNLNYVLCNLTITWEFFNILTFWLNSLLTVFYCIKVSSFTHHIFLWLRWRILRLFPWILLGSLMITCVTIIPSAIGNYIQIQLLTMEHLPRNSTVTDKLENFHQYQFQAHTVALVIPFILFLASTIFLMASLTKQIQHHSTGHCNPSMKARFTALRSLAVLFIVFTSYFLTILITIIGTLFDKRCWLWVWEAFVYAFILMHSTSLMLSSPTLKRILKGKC
Experimental: as §1, §2

- percentage block of cellular response over baseline, 67 (T2R67 (TAS2R50)): 30%
- percentage block of cellular response over baseline, 63 (T2R63 (TA2R20)): 30%
- percentage block of cellular response over baseline, 04 (T2R04 (TAS2R04)): >99%
- percentage block of cellular response over baseline, 13 (T2R13 (TAS2R13)): >30%
- percentage block of cellular response over baseline, 03 (T2R03 (TAS2R03)): >30%
- percentage block of cellular response over baseline, 71 (T2R71 (TAS2R41)): >30%
- percentage block of cellular response over baseline, 61 (T2R61 (TAS2R43)): >85%
- percentage block of cellular response over baseline, 16 (T2R16 (TAS2R16)): >25%
SMILES: CCCCC/C=C/C(=O)O [Compound 103]
